Blank lines part the entries; values can stand above or below the molecule they belong to. Residues, ends and D or L forms follow the SMILES beside them. *: point of attachment. Cbz = O=C(OCc1ccccc1)*
How the values were obtained:
[1] = target: T1, BCL6^5-129 (Homo sapiens, UniProt P41182); assay: BCL6-BCoR TR-FRET (compound binding assay); details: 0.1 μM FITCBCoR polypeptide, 0.1 μM BiotinBCL6^5-129
T1 construct: mixing 100 nM biotinylated BCL6^5-129, 100 nM N-terminal FITC-labeled BCoR peptide; made in house; host or cells: Trichoplusia ni High Five insect cells, baculovirus
Procedure: Competitive titration of BI-3802 or BI-3812 were carried out by mixing 100 nM biotinylated BCL6^5-129, 100 nM N-terminal FITC-labeled BCoR peptide (sequence: […]), and 2 nM terbium-coupled streptavidin in the same assay buffer. After dispensing the assay mixture (15 μL volume), increasing concentrations of compounds were dispensed in a 384-well microplate (Corning, 4514) using a D300e Digital Dispenser (HP) normalized to 1% DMSO. The 520/490 nm ratios were measured as described above and plotted to calculate the KD^APP values using dose-response analysis standard four parameter log-logistic curves using the dr4pl R package.

[2] = test system: SuDHL4Cas9 cells; assay: Whole proteome quantification using tandem mass tag mass spectrometry; assay type: cell-based, human; details: SuDHL4 cells, 1 μM compound, 4 hours
Procedure: 10×10^6 SuDHL4Cas9 cells were treated with DMSO, 1 μM BI-3802 or 1 μM BI-3812 for 1 h or 4 h in triplicates and cells were harvested by centrifugation. Samples were processed, measured and analyzed as previously described (Donovan, K. A. et al. Thalidomide promotes degradation of SALL4, a transcription factor implicated in Duane Radial Ray syndrome. Ehfe 7, doi:10.7554/eLife.38430 (2018)). Data are available in the PRIDE repository (PXD016185).

[3] = target: T2, BCL6^5-360 - SIAH1^SBD (Homo sapiens, UniProt P41182); assay: BCL6-SIAH1 TR-FRET; assay type: biochemical; details: in vitro, increasing compound concentration
T2 construct: 200 nM BodipyFL-labeled BCL6^5-360 variants; His6 (N); Spy (C); made in house; host or cells: Trichoplusia ni High Five insect cells, baculovirus
Procedure: After dispensing the assay mixture (15 μL volume), increasing concentrations of compounds were dispensed in a 384-well microplate (Corning, 4514) using a D300e Digital Dispenser (HP) normalized to 1% DMSO. After excitation of terbium fluorescence at 337 nm, emission at 490 nm (terbium) and 520 nm (BodipyFL) were recorded with a 70 us delay over 600 μs to reduce background fluorescence, and the reaction was followed over 60 cycles of each data point using a PHERAstar FS microplate reader (BMG Labtech). The TR-FRET signal of each data point was extracted by calculating the 520/490 nm ratio. The half-maximal effective concentration (EC50) values were estimated using dose-response analysis standard four parameter log-logistic curves, fitted to the experimental data using […] package. […] After dispensing the assay mixture, increasing concentration of BodipyFL-BCL6^5-360 was added to the SIAH1 mixture in a […] (7.5 μL each, total 15 μL assay volume). The 520/490 nm ratios were measured in as described above and plotted to calculate the KD^APP values using dose-response analysis standard four parameter log-logistic curves using […] package.

[4] = target: T3, BCL6-eGFP fusion construct (Homo sapiens, UniProt P41182); assay: Live cell imaging of BCL6-eGFP foci in HEK293T cells; assay type: cell-based; details: eGFPBCL6^1-250, 10 μM BI-3812 added 75 minutes after 1 μM BI-3802
T3 construct: expressed in transfected cells; host or cells: HEK293TCas9 cells, lentiviral transduction (Cilantro2 vector)
Procedure: 1×10^3 HEK293T cells per cm^2 were seeded in a μ-Slide 8 Well chamber (ibidi) and cultured for 18-24 h under standard growth conditions. Cell culture medium was exchanged to CO2 independent media (Gibco) and imaged with the DeltaVision Ultra High-Resolution Microscope (GE Healthcare, 100×lens, oil refraction index=1.520). The following acquisition parameters were used: Image size […], binning 1×1, GFP exposure time 0.08 sec. and the Neutral Density (% T) filter 32%. To capture foci within all cell volume, around 26μm per cell was imaged every 0.4-0.5 μm. Images were deconvolved (10 cycles, conservative conditions) and projected using maximal intensity by softWoRx® 7.0.0. Images for movies were taken every 10 minutes and combined to a movie by QuickTime.

[5] = target: T4, eGFPBCL6 stability reporter (Homo sapiens, UniProt P41182); assay: Degradation of BCL6 reporter constructs in HEK293T cells (flow cytometry); assay type: cell-based; details: for effect on BI-3802-induced degradation of eGFPBCL6^FL: HEK293TCas9 cells, 0.5 μM MLN7243, 5 μM MLN4924 or 10 μM MG132 for 3 hours plus 1 μM BI-3802 for 1 hour
T4 construct: the full length BCL6 (BCL6^FL) was fused in-frame with eGFP; expressed in transfected cells; host or cells: HEK293TCas9 cells, lentiviral transduction (Artichoke vector)
Procedure: Lentivirus was packaged in HEK293T cells using TransIT (Mirus) and subsequently used for spin infection.
HEK293TCas9 cells expressing indicated constructs in “Artichoke” or “Cilantro2” stability reporter vectors (PGK or SFFV Target-eGFP-IRES-mCherry, puromycin resistance) were plated in 96 well plates and treated for indicated times. BCL6-eGFP and mCherry expression were quantified by flow cytometry (CytoFLEX, Beckman or LSR Fortessa flow cytometer BD Biosciences). All degradation assays were done in at least triplicates. Geometric means of eGFP and mCherry fluorescent signals for live and mCherry positive cells were exported using flow cytometry analysis software (FlowJo, BD). Ratios of eGFP to mCherry were normalized to the average of DMSO-treated controls.

affinity of compound to BCL6 (BCoR peptide competition) [1]: comparable affinity
reversal of BI-3802-induced foci [4]: fully reversible
degradation of full-length BCL6 reporter (eGFPBCL6^FL) ([5]; HEK293T cells, 1 μM, 1 hour): did not alter stability of the reporter
SMILES: CNC(=O)COc1cc2cc(Nc3nc(N4CCC(C(=O)N(C)C)CC4)ncc3Cl)cc(OC)c2n(C)c1=O [BI-3812, 1-(5-chloro-4-((8-methoxy-1-methyl-3-(2-(methylamino)-2-oxoethoxy)-2-oxo-1,2-dihydroquinolin-6-yl)amino)pyrimidin-2-yl)-N,N-dimethylpiperidine-4-carboxamide]
change in polypeptide abundance (whole proteome) [2]: did not alter the abundance of any polypeptide
effect on the BCL6-SIAH1 interaction (TR-FRET) [3]: did not influence the BCL6-SIAH1 interaction
block of BI-3802-induced BCL6 degradation ([5]; HEK293T cells expressing eGFPBCL6^1-275, simultaneous BI-3802 and excess BI-3812, 24 hours): efficiently blocked BI-3802-induced BCL6 degradation

SMILES: CC(C)C[C@@H](C=O)NC(=O)[C@H](CC(C)C)NC(=O)[C@H](CC(C)C)NC(=O)OCc1ccccc1 [MG132] (Cbz-Leu-Leu-Leu-aldehyde)
effect on BI-3802-induced degradation of eGFPBCL6^FL [5]: attenuated

SMILES: NS(=O)(=O)OC[C@@H]1C[C@@H](n2ccc3c(N[C@H]4CCc5ccccc54)ncnc32)C[C@@H]1O [MLN4924]
effect on BI-3802-induced degradation of eGFPBCL6^FL [5]: not by inhibition of the neddylation pathway with MLN4924

effect on BI-3802-induced degradation of eGFPBCL6^FL [5]: attenuated
SMILES: NS(=O)(=O)OC[C@H]1C[C@@H](Nc2ccnc3cc(-c4cccc(SC(F)(F)F)c4)nn23)[C@H](O)[C@@H]1O [MLN7243]

— patent US20220281931A1, “CHEMICALLY INDUCIBLE POLYPEPTIDE POLYMERIZATION” (Dana-Farber Cancer Institute, Inc., priority 2019, published 2022)
